Reference: patent US10322995B2, “Substituted cyano cycloalkyl penta-2,4-dienes, cyano cycloalkyl pent-2-en-4-ynes, cyano heterocyclyl penta-2,4-dienes and cyano heterocyclyl pent-2-en-4-ynes as active substances against abiotic plant stress” (BAYER CROPSCIENCE AKTIENGESELLSCHAFT, priority 2014, dated 2019)

Columns and labels:
Parameters in all cases: key: 0: no positive effect; 10: slight positive effect; 20: clear positive effect; 30: strong positive effect
[1] = tested on: Brassica napus (BRSNS); experiment: In vivo analyses Part B: drought stress, appearance vs stressed control plants in categories (BRSNS); details: spray application 250 g/ha, category vs stressed control plants, 2-3 pots
Protocol: Seeds of monocotyledonous and dicotyledonous crop plants were sown in sandy loam in plastic pots, covered with soil or sand and cultivated in a greenhouse under good growth conditions. The test plants were treated at the early leaf stage (BBCH10-BBCH13). To assure uniform water supply before commencement of stress, the potted plants were supplied with water by dam irrigation prior to substance application. The inventive compounds, formulated in the form of wettable powders (WP), were sprayed onto the green parts of the plants as an aqueous suspension at an equivalent water application rate of 600 I/ha with addition of 0.2% wetting agent (e.g. agrotin). Substance application was followed immediately by stress treatment of the plants. Drought stress was induced by gradual drying out under the following conditions: “Day”: 14 hours with illumination at 26-30° C. “Night”: 10 hours without illumination at 18-20° C. The duration of the respective stress phases was guided mainly by the condition of the stressed control plants. It was ended (by re-irrigating and transfer to a greenhouse with good growth conditions) as soon as irreversible damage was observed on the stressed control plants. The end of the stress phase was followed by an about 4-7-day recovery phase, during which the plants were once again kept under good growth conditions in a greenhouse. The duration of the recovery phase was guided mainly by when the trial plants had attained a state which enabled visual scoring of potential effects, and was therefore variable. Once this juncture had been reached, the appearance of the plants treated with test substances was recorded in comparison to the stressed control plants by the following categories: [table] In order to rule out any influence on the effects observed by any fungicidal or insecticidal action of the test compounds, it was additionally ensured that the tests proceeded without fungal infection or insect infestation. For each substance and dosage, 2-3 pots were treated and evaluated. BRSNS=Brassica napus

[2] = tested on: Zea mays (ZEAMX); experiment: In vivo analyses Part B: drought stress, appearance vs stressed control plants in categories (ZEAMX); details: spray application 25 g/ha, category vs stressed control plants, 2-3 pots
Protocol: Seeds of monocotyledonous and dicotyledonous crop plants were sown in sandy loam in plastic pots, covered with soil or sand and cultivated in a greenhouse under good growth conditions. The test plants were treated at the early leaf stage (BBCH10-BBCH13). To assure uniform water supply before commencement of stress, the potted plants were supplied with water by dam irrigation prior to substance application. The inventive compounds, formulated in the form of wettable powders (WP), were sprayed onto the green parts of the plants as an aqueous suspension at an equivalent water application rate of 600 I/ha with addition of 0.2% wetting agent (e.g. agrotin). Substance application was followed immediately by stress treatment of the plants. Drought stress was induced by gradual drying out under the following conditions: “Day”: 14 hours with illumination at 26-30° C. “Night”: 10 hours without illumination at 18-20° C. The duration of the respective stress phases was guided mainly by the condition of the stressed control plants. It was ended (by re-irrigating and transfer to a greenhouse with good growth conditions) as soon as irreversible damage was observed on the stressed control plants. The end of the stress phase was followed by an about 4-7-day recovery phase, during which the plants were once again kept under good growth conditions in a greenhouse. The duration of the recovery phase was guided mainly by when the trial plants had attained a state which enabled visual scoring of potential effects, and was therefore variable. Once this juncture had been reached, the appearance of the plants treated with test substances was recorded in comparison to the stressed control plants by the following categories: [table] In order to rule out any influence on the effects observed by any fungicidal or insecticidal action of the test compounds, it was additionally ensured that the tests proceeded without fungal infection or insect infestation. For each substance and dosage, 2-3 pots were treated and evaluated. ZEAMX=Zea mays

[3] = tested on: Triticum aestivum (TRZAS); experiment: In vivo analyses Part B: drought stress, appearance vs stressed control plants in categories (TRZAS); details: spray application 250 g/ha, category vs stressed control plants, 2-3 pots
Protocol: Seeds of monocotyledonous and dicotyledonous crop plants were sown in sandy loam in plastic pots, covered with soil or sand and cultivated in a greenhouse under good growth conditions. The test plants were treated at the early leaf stage (BBCH10-BBCH13). To assure uniform water supply before commencement of stress, the potted plants were supplied with water by dam irrigation prior to substance application. The inventive compounds, formulated in the form of wettable powders (WP), were sprayed onto the green parts of the plants as an aqueous suspension at an equivalent water application rate of 600 I/ha with addition of 0.2% wetting agent (e.g. agrotin). Substance application was followed immediately by stress treatment of the plants. Drought stress was induced by gradual drying out under the following conditions: “Day”: 14 hours with illumination at 26-30° C. “Night”: 10 hours without illumination at 18-20° C. The duration of the respective stress phases was guided mainly by the condition of the stressed control plants. It was ended (by re-irrigating and transfer to a greenhouse with good growth conditions) as soon as irreversible damage was observed on the stressed control plants. The end of the stress phase was followed by an about 4-7-day recovery phase, during which the plants were once again kept under good growth conditions in a greenhouse. The duration of the recovery phase was guided mainly by when the trial plants had attained a state which enabled visual scoring of potential effects, and was therefore variable. Once this juncture had been reached, the appearance of the plants treated with test substances was recorded in comparison to the stressed control plants by the following categories: [table] In order to rule out any influence on the effects observed by any fungicidal or insecticidal action of the test compounds, it was additionally ensured that the tests proceeded without fungal infection or insect infestation. For each substance and dosage, 2-3 pots were treated and evaluated. TRZAS=Triticum aestivum

Row | Compound | Effect (BRSNS) [1] | Effect (ZEAMX) [2] | Effect (TRZAS) [3]
1 | CCOC(=O)/C=C(\C#CC(O)(C(C)C)C1(C#N)CC1)CC (stereo not shown) [I.1-103] | 30 | 10-20 | 10-20
2 | COC(=O)/C=C(/C)C#CC(O)(C(C)C)C1(C#N)CC1 (stereo not shown) [I.1-135] | 30 |  | 30
3 | CC/C(C#CC(O)(c1ccccc1)C1(C#N)CC1)=C/C(=O)OC (stereo not shown) [I.1-202] | 20 | 10-20 | 20
4 | CCCOC(=O)/C=C(\C#CC(O)(C(C)C)C1(C#N)CC1)CC (stereo not shown) [I.1-605] | 20 |  | 20
5 | CCCOC(=O)/C=C(\C#CC(O)(c1ccccc1)C1(C#N)CC1)CC (stereo not shown) [I.1-609] | 10-20 | 20 | 10
